Experimental data: ChEMBL document CHEMBL1201862, “PubChem BioAssay data set” (2004)
The source made the active and inactive calls.

Experiments:
fMet-Leu-Phe receptor = fMet-Leu-Phe receptor (Homo sapiens, UniProt P21462); assay: formyl peptide receptor binders – dose response (AID 519); type: functional
[1] = target: Disintegrin and metalloproteinase domain-containing protein 17 (Homo sapiens, UniProt P78536); assay: exosite inhibitors of ADAM17, dose response, biochemical (AID 743260)
[2] = inhibition of ADAM10 peptide cleavage – biochemical, FRET peptide substrate, recombinant human ADAM10, selectivity assay for ADAM17 exosite inhibitor project, dose response (AID 743259);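 note: ADAM10 enzyme cleaving a FRET peptide substrate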
[3] = A549 cell cytotoxicity, dose response, cytotoxicity control, plate reader, cherry-pick, antagonist series (AID 743412); type: functional, cell-based
[4] = viability loss in HEK293 cells – cell-based, plate reader, cherry-picked samples, cytotoxicity control, dose response (AID 743446); type: functional
[5] = HGIII-sPLA2 enzyme inhibition potency – biochemical, QFRET, IC50, dose response (AID 743457);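 note: green fluorescence rise as the enzyme cleaves BODIPY PC-A2 in liposomes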
Kallikrein-7 = Kallikrein-7 (Homo sapiens, UniProt P49862); assay: Fluorescence Intensity-based biochemical primary high throughput dose response assay to identify activators of kallikrein-7 (K7) zymogen.
[6] = target: Mitogen-activated protein kinase 10 (Homo sapiens, UniProt P53779); assay: Dose response biochemical screening assay for inhibitors of c-Jun N-Terminal Kinase 3 (JNK3). [Related pubchem assays: 746 ]
Major prion protein = Major prion protein (Homo sapiens, UniProt P04156); type: functional, cell-based
cells [7] = assay: cells
[8] = Luminescence-based cell-based high throughput dose response assay to identify activators of the DAF-12 from the parasite S. stercoralis (ssDAF-12).; type: functional
[9] = target: T1, Oxysterols receptor LXR-beta (Homo sapiens, UniProt P55055); assay: LXR agonists, Gal4 luciferase reporter, dose response, counter-screen for ssDAF-12 agonist project, cell-based, luminescence, HEK293, S. stercoralis campaign (AID 720737); type: functional; conditions: read-out: IC50 (the source's name)
T1 sequence (P55055 whole entry): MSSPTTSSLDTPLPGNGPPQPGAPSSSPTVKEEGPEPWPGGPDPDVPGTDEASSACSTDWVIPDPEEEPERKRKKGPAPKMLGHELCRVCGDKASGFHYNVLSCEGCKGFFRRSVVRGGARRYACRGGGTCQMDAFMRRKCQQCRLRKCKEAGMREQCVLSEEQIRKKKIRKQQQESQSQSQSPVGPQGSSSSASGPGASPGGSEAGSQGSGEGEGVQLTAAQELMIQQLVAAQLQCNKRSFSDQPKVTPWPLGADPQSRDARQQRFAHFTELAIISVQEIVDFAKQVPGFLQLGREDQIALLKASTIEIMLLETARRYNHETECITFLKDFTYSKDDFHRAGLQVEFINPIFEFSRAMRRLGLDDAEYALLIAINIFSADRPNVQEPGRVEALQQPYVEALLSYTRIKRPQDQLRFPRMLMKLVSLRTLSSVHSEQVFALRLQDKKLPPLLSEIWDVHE

[10] = viability inhibitors of stage V gametocytes – luminescence, dose response (AID 1117278); type: functional, cell-based;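 note: gametocytes exposed to compound for 24 hours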
[11] = viability loss in human Jurkat cells – cell-based, luminescence, cytotoxicity control for P. falciparum gametocyte viability project, dose response (AID 1117277); type: functional;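 note: potency reflects loss of cellular ATP meaning fewer viable cells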
[12] = target: Peroxisome proliferator-activated receptor gamma/Nuclear receptor coactivator 1 (Homo sapiens, UniProt P37231); assay: (§1) TR-FRET dose response biochemical High Throughput Screening assay for agonists of the steroid receptor coactivator 1 (SRC-1) recruitment by the peroxisome proliferator-activated receptor gamma (PPAR gamma): non-selective agonists. [Related pubchem assays (depositor defined):AID1300, AID1808, AID504735, AID631]; type: protein assay
[13] = target: Peroxisome proliferator-activated receptor gamma/Nuclear receptor coactivator 3 (Homo sapiens, UniProt P37231); assay: as §1, with “3 (SRC-3)” for “1 (SRC-1)”, “assays: 1301 (Confirmation screen.), 1048 (Primary screen.)]” for “assays (depositor defined):AID1300, AID1808, AID504735, AID631]”; type: functional
[14] = target: Peroxisome proliferator-activated receptor gamma/Nuclear receptor coactivator 2 (Homo sapiens, UniProt P37231); assay: TR-FRET dose response biochemical High Throughput Screening assay for agonists of the steroid receptor coactivator 2 (SRC-2) recruitment by the peroxisome proliferator-activated receptor gamma (PPAR gamma): non-selective agonists. [Related pubchem assays: 1297, 1032 ]; type: functional
cells [15] = conditions: A549
[16] = target: T2, Corticotropin-releasing factor receptor 2/Corticotropin-releasing factor-binding protein (Homo sapiens, UniProt P24387+Q13324); assay: Dose Response confirmation of uHTS hits for small molecule antagonists of the CRF-binding protein and CRF-R2 receptor complex.; type: functional; conditions: read-out: IC50_Mean
T2 sequence (Q13324 whole entry): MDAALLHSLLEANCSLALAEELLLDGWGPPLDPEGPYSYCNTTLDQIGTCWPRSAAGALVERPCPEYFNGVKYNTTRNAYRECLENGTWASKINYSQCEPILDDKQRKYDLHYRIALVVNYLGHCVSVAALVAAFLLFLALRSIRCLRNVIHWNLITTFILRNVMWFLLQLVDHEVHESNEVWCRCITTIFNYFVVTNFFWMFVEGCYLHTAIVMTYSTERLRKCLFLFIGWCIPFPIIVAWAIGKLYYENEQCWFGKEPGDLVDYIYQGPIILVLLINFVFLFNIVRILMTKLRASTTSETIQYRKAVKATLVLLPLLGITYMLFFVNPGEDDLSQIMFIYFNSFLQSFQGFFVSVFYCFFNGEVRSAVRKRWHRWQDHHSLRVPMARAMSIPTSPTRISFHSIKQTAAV
T2 sequence (P24387 whole entry): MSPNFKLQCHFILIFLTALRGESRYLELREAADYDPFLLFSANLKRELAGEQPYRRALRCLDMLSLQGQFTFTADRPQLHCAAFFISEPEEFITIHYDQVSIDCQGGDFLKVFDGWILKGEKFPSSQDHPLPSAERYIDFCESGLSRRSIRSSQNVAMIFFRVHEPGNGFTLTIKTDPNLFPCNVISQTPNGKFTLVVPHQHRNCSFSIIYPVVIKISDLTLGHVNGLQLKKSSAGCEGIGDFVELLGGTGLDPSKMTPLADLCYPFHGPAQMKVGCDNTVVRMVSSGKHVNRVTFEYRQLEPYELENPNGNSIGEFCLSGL

[17] = target: T2, Corticotropin-releasing factor receptor 2/Corticotropin-releasing factor-binding protein; assay: activators of CRF receptor 2 with binding protein – uHTS hits, confirmation (AID 602473); type: functional; conditions: read-out: EC50_Mean

## COCCCN1C(=O)C(O)=C(C(=O)c2ccco2)C1c1cccc(Br)c1 (stereo unspecified)
fMet-Leu-Phe receptor
  Ki: 31.2 µM (inactive)

## CC(=O)n1cc([C@@H]2C=C(C(=O)Nc3ccccc3)O[C@H](OCc3ccc(CO)cc3)C2)c2ccccc21
[1]
  IC50: > 69.5 µM (inactive)
[2]
  IC50: > 69.5 µM (inactive)

## O=c1cc(-c2c(F)c(F)c(F)c(F)c2F)oc2ccccc12
[3]
  AC50: 17.4 µM (active)
[4]
  AC50: 37.5 µM (active)

## CCOc1ccc(-n2c(N)c(-c3nc4ccccc4[nH]3)sc2=S)cc1
[5]
  IC50: > 122 µM (inactive)

## Nc1ccc(Cl)cc1C(=O)OCC(=O)NC1CCS(=O)(=O)C1 (stereo unspecified)
Kallikrein-7
  EC50: > 7.72 µM (active)

## Cc1cc(N2C(=O)C(O)=C(C(=O)c3ccc(F)cc3)C2c2cccc(Br)c2)no1 (stereo unspecified)
fMet-Leu-Phe receptor
  Ki: > 66.7 µM (inactive)

## N#Cc1c(O)nc(SCc2ccc(F)cc2)nc1-c1ccco1
[6]
  IC50: 13.6 µM (not active)
Major prion protein
  IC50: 1.02 µM (active)
Cells [7]
  IC50: > 138 µM (inactive)

## O=C(NCCc1c[nH]c2ccccc12)c1cnccn1
[8]
  IC50: > 67.5 µM (inactive)
[9]
  EC50: > 67.5 µM (inactive)
[10]
  IC50: > 109 µM (inactive)
[11]
  IC50: > 83.3 µM (inactive)

## Cc1ccccc1-c1nnc(S)o1
[12]
  EC50: 71.9 µM (inactive)
[13]
  EC50: > 79.4 µM (not active)
[14]
  EC50: 9.69 µM (active)
[6]
  IC50: 55.5 µM (not active)
Major prion protein
  IC50: 5.75 µM (active)
Cells [7]
  IC50: > 138 µM (inactive)

## COc1cc(C2C3=C(CC(C)(C)CC3=O)N(C)C3=C2C(=O)CC(C)(C)C3)cc(Br)c1O
Cells [15]
  AC50: > 52 µM (inactive)

## CCCc1n[nH]c(SCc2ccc(Cl)cc2Cl)n1
[16]
  IC50: > 47.1 µM (inactive)
[17]
  EC50: > 53 µM (inactive)
[10]
  IC50: > 109 µM (inactive)
[11]
  IC50: > 83.3 µM (inactive)
